From patent US20250327794A1, “FLUOROMETRIC METHODS FOR DETECTION OF ALLERGIC SENSITIVITY TO ENVIRONMENTAL, FOODSTUFF, AND MEDICAMENT STIMULANTS” (CELL SCIENCE SYSTEMS CORPORATION, priority 2022, published 2025)

Columns and labels:
[1] = test system: Neutrophils (CD11b+); type: cell-based, human
[2] = test system: Basophils (CD63+/CD203c+); assay: Basophil activation by COVID-19 vaccines and vaccine components, blood of a hypersensitive subject; type: cell-based, human; conditions: subject with known allergic reaction to mRNA-1273 booster

“2,2-dimyristoyl-rac-glycero3-methoxypolyethylene glycol-2000 [PEG2000-DMG]” was tested, and the “percent neutrophil activation versus control, vaccine components” value [1] was “higher percent neutrophil activation versus control” and the “basophil activation and gross granulocyte activation in response to vaccine components” value [2] was “marked increase”.

“2-[(polyethylene glycol)-2000]-N,N-ditetradecylacetamide [ALC0159]” was tested, and the “percent neutrophil activation versus control, vaccine components” value [1] was “higher percent neutrophil activation versus control” and the “basophil activation and gross granulocyte activation in response to vaccine components” value [2] was “marked increase”.

For 2-hydroxypropyl-β-cyclodextrin [HBCD], the “percent neutrophil activation versus control, vaccine components” value [1] was “higher percent neutrophil activation versus control”.

In the case of `CCCCCCCCC(CCCCCC)C(=O)OCCCCCCN(CCCCO)CCCCCCOC(=O)C(CCCCCC)CCCCCCCC` (stereo not shown) [ALC0315], the “percent neutrophil activation versus control, vaccine components” value [1] is reported as “higher percent neutrophil activation versus control” and the “basophil activation and gross granulocyte activation in response to vaccine components” value [2] is reported as “marked increase”.

For `CCCCCCCCCCCCCCCCCC(=O)OC[C@H](COP(=O)([O-])OCC[N+](C)(C)C)OC(=O)CCCCCCCCCCCCCCCCC` [DSPC, 1,2-diastearoyl-sn-glycero-3-phosphocholine], the “percent neutrophil activation versus control, vaccine components” value [1] was “did not”.

In the case of `CCCCCCCCCCCOC(=O)CCCCCN(CCO)CCCCCCCC(=O)OC(CCCCCCCC)CCCCCCCC` [SM102], the “percent neutrophil activation versus control, vaccine components” value [1] is reported as “higher percent neutrophil activation versus control” and the “basophil activation and gross granulocyte activation in response to vaccine components” value [2] is reported as “marked increase”.

`CCO` [ethanol] was tested, and the “percent neutrophil activation versus control, vaccine components” value [1] was “did not”.

In the case of polysorbate-80 [PS80], the “percent neutrophil activation versus control, vaccine components” value [1] is reported as “higher percent neutrophil activation versus control” and the “basophil activation and gross granulocyte activation in response to vaccine components” value [2] is reported as “marked increase”.
